Like-named read-outs stand apart in the source and are kept apart here.
Columns and labels:
Assay in all cases: biochemical
Type in all cases: biochemical
382 unique human kinases [1] = target: T1, 382 unique human kinases (Homo sapiens, UniProt P07949, E762Q); conditions: compound 10 uM; for remaining activity at 10 µM: read-out: % Enzyme Activity (relative to DMSO controls)
T1 construct: purchased Reaction Biology (HotSpot contract assay)

382 unique human kinases [2] = target: T2, 382 unique human kinases (Homo sapiens, UniProt P20794); conditions: kinase MAK, compound 10 uM; for remaining activity at 10 µM: read-out: % Enzyme Activity (relative to DMSO controls)
T2 construct: purchased Reaction Biology (HotSpot contract assay)
T2 sequence (P20794 1-623): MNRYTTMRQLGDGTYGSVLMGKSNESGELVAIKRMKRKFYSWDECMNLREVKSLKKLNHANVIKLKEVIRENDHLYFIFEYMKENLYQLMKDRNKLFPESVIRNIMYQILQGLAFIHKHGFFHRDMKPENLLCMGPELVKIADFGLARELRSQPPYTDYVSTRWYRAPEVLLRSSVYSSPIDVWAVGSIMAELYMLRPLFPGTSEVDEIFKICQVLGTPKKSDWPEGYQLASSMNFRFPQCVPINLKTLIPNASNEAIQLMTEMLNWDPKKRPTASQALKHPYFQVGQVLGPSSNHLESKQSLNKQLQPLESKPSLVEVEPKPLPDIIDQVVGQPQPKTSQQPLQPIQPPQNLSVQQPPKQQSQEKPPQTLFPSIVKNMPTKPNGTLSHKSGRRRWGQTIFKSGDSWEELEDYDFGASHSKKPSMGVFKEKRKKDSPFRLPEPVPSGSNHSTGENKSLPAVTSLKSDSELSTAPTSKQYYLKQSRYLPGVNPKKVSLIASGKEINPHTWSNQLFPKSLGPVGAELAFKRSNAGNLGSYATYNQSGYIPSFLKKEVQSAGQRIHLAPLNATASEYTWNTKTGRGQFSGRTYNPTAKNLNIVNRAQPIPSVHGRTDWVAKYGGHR

382 unique human kinases [3] = target: T3, 382 unique human kinases (Homo sapiens, UniProt P49137); conditions: MAPKAPK2, compound at 10 uM, duplicate values; for remaining activity at 10 µM: read-out: % Enzyme Activity (relative to DMSO controls)
T3 construct: purchased Reaction Biology (HotSpot contract assay)

382 unique human kinases [4] = target: T4, 382 unique human kinases (Homo sapiens, UniProt Q9P286); conditions: PAK5, compound at 10 uM, duplicate values; for remaining activity at 10 µM: read-out: % Enzyme Activity (relative to DMSO controls)
T4 construct: purchased Reaction Biology (HotSpot contract assay)

382 unique human kinases [5] = target: T5, 382 unique human kinases (Homo sapiens, UniProt P00519, E255V); conditions: ABL1 (E255V), [ATP] 10 µM, compound 10 uM; for remaining activity at 10 µM: read-out: % Enzyme Activity (relative to DMSO controls)
T5 construct: purchased Reaction Biology (HotSpot contract assay)

382 unique human kinases [6] = target: T6, 382 unique human kinases (Homo sapiens, UniProt P07949, G691S); conditions: RET (G691S), 10 uM; for remaining activity at 10 µM: read-out: % Enzyme Activity (relative to DMSO controls)
T6 construct: purchased Reaction Biology (HotSpot contract assay)

382 unique human kinases [7] = target: T7, 382 unique human kinases (Homo sapiens, UniProt Q04912); conditions: RON/MST1R, 10 uM; for remaining activity at 10 µM: read-out: % Enzyme Activity (relative to DMSO controls)
T7 construct: purchased Reaction Biology (HotSpot contract assay)

382 unique human kinases [8] = target: T8, 382 unique human kinases (Homo sapiens, UniProt Q09013); conditions: DMPK, 10 uM; for remaining activity at 10 µM: read-out: % Enzyme Activity (relative to DMSO controls)
T8 construct: purchased Reaction Biology (HotSpot contract assay)
T8 sequence (Q09013 1-629): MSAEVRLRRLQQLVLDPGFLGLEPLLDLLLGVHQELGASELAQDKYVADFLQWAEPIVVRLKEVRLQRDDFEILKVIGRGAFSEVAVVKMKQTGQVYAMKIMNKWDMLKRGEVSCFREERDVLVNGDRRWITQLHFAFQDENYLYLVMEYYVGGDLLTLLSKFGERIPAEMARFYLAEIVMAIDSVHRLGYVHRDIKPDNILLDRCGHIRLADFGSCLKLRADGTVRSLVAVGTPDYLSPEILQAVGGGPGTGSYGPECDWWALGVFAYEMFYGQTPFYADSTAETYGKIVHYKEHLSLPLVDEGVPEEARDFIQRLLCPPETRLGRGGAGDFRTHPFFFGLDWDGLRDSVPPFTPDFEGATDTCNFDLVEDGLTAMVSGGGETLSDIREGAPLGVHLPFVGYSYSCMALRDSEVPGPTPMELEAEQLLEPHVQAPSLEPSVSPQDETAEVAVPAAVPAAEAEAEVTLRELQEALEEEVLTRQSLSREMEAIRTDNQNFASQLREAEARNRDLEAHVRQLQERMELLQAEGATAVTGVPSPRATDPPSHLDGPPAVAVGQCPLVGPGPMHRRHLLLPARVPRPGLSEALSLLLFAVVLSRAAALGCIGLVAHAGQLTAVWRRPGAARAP

382 unique human kinases [9] = target: T9, 382 unique human kinases (Homo sapiens, UniProt Q15119); conditions: PDK2/PDHK2, [ATP] 15 µM
T9 construct: purchased Reaction Biology (HotSpot contract assay)

382 unique human kinases [10] = target: T10, 382 unique human kinases (Homo sapiens, UniProt Q16832, N456S); conditions: DDR2 (N456S), [ATP] 2.5 µM, compound 10 uM; for remaining activity at 10 µM: read-out: % Enzyme Activity (relative to DMSO controls)
T10 construct: purchased Reaction Biology (HotSpot contract assay)
T10 sequence (Q16832 22-855 N456S): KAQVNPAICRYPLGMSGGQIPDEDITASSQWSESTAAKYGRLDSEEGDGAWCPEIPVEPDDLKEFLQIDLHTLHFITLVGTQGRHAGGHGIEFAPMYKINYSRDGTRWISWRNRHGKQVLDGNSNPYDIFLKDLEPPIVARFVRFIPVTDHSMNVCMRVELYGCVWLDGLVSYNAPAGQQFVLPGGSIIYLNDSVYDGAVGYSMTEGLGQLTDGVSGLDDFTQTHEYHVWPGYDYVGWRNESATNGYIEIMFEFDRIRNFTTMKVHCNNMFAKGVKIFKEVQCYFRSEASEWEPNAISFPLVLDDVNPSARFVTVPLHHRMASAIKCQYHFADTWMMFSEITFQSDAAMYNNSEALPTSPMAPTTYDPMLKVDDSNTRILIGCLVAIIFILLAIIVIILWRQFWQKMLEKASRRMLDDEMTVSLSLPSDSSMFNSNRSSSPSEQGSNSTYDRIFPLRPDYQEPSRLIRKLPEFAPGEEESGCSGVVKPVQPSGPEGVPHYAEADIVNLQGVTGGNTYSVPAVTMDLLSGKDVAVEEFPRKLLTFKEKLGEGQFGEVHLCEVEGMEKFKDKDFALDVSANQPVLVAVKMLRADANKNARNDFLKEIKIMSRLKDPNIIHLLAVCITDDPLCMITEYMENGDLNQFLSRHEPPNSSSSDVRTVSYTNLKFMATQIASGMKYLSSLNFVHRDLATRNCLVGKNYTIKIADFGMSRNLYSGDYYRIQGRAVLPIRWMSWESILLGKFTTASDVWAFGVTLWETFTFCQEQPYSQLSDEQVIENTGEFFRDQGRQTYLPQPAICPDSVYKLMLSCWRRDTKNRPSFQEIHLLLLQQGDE

382 unique human kinases [11] = target: T11, 382 unique human kinases (Homo sapiens, UniProt Q9P289); conditions: MST4, 10 uM; for remaining activity at 10 µM: read-out: % Enzyme Activity (relative to DMSO controls)
T11 construct: purchased Reaction Biology (HotSpot contract assay)

[12] = compound 10 uM, read-out: % Enzyme Activity (relative to DMSO controls)

T3 sequence (P49137 whole entry): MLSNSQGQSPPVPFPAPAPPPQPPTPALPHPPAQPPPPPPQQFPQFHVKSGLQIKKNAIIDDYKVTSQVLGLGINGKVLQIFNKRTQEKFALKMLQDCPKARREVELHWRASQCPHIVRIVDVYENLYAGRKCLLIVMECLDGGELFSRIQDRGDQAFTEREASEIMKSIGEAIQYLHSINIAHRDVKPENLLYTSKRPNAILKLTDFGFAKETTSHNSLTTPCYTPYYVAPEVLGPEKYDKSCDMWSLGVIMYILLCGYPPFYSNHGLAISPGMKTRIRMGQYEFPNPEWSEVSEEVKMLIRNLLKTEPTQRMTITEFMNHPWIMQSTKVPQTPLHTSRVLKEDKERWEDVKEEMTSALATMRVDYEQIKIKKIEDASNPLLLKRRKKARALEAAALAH
T7 sequence (Q04912 25-1400): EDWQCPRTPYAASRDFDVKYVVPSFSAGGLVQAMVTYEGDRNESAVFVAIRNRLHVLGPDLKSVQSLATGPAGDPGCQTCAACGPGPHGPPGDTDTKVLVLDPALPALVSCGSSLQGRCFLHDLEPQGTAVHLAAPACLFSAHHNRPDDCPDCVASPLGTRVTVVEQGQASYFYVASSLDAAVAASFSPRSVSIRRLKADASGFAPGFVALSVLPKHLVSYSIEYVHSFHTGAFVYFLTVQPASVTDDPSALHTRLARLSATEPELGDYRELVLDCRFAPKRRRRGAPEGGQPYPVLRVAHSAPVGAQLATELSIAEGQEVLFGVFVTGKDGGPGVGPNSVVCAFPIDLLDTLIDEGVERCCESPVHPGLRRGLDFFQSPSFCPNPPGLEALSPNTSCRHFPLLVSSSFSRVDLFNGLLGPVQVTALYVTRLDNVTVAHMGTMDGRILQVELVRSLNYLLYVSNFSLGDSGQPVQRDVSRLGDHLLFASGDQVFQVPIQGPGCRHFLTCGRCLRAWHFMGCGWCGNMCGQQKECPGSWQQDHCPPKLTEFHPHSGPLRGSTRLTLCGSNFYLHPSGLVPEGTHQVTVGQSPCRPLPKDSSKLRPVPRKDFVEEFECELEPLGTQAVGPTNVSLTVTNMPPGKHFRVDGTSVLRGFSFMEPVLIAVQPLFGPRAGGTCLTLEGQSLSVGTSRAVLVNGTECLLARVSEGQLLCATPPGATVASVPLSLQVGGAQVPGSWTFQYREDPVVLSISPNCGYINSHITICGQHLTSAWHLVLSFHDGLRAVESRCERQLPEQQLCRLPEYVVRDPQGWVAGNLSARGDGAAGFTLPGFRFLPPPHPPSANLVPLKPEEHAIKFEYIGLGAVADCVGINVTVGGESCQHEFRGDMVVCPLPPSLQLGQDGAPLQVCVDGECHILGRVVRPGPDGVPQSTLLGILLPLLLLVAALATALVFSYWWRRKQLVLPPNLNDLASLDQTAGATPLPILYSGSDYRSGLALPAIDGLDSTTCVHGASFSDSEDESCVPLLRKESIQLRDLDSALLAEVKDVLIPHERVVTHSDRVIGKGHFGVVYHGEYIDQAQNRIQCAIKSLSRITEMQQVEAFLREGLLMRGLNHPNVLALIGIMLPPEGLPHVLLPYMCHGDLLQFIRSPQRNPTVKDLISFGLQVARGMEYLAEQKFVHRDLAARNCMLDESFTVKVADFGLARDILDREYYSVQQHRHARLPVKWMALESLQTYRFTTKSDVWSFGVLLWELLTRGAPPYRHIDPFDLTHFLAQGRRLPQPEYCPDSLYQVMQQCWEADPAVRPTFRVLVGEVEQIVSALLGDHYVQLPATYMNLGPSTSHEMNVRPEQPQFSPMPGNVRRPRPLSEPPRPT
T5 sequence (P00519 whole entry E255V): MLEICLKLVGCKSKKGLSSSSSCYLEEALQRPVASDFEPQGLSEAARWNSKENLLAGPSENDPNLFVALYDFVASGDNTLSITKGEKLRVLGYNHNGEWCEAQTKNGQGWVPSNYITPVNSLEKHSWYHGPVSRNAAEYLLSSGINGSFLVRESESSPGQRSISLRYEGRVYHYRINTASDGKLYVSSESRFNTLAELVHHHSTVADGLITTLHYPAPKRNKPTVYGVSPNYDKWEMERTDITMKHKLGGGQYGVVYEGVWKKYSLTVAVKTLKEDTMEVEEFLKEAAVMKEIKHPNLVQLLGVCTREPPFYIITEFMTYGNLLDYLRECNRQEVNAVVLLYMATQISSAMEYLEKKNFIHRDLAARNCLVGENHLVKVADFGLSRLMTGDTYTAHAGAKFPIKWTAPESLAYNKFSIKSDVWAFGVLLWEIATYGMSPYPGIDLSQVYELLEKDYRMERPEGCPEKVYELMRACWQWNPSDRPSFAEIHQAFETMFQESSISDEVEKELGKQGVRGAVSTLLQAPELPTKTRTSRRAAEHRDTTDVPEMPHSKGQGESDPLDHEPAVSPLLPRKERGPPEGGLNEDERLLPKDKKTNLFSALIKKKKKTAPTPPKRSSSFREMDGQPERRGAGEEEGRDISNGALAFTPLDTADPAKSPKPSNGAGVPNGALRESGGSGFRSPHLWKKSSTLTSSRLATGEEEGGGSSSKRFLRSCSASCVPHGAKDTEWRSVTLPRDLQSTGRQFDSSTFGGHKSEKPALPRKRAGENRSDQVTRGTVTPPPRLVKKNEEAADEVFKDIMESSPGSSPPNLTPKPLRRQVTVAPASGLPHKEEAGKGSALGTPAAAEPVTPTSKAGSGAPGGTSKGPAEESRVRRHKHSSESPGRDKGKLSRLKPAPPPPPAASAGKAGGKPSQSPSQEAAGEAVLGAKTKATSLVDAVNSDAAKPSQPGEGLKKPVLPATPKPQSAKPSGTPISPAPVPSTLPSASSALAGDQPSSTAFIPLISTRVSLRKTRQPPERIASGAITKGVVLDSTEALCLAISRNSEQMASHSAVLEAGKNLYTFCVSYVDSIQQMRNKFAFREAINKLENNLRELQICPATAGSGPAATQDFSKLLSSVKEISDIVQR
T11 sequence (Q9P289 whole entry): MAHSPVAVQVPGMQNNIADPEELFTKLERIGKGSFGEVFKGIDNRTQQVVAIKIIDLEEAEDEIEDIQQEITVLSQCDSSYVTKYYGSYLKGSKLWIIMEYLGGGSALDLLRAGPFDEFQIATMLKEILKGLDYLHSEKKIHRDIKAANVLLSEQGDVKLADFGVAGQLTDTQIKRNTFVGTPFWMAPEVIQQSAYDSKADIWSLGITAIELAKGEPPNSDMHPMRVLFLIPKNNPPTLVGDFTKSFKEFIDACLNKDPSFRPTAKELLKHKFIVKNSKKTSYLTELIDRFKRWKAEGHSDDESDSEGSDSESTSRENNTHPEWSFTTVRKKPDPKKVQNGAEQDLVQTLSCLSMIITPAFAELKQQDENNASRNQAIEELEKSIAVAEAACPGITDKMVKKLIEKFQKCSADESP
T4 sequence (Q9P286 whole entry): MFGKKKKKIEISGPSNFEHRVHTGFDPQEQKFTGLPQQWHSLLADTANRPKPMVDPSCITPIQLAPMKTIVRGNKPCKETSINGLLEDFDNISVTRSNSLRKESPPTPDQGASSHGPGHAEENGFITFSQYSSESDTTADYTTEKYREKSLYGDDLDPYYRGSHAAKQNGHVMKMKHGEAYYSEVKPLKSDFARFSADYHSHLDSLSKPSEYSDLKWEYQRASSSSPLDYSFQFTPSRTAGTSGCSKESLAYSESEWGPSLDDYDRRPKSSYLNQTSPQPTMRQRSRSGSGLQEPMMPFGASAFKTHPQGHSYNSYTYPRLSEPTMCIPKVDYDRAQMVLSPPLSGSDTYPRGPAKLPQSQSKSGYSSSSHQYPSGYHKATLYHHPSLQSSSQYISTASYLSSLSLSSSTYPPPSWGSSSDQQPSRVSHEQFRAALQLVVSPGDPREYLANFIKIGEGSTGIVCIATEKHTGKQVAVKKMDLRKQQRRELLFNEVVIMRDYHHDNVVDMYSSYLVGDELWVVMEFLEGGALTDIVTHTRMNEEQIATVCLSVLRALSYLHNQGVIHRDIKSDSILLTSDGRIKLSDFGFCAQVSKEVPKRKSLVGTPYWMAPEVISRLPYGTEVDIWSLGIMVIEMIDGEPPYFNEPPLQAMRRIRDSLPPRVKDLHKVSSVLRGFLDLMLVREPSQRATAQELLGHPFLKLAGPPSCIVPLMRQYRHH

`CC(C)c1cc(-c2n[nH]c(=O)n2-c2ccc3c(ccn3C)c2)c(O)cc1O` [Ganetespib (STA9090)] gave a remaining activity at 10 µM (382 unique human kinases [1]; […]) of 94.2%, a remaining activity at 10 µM (382 unique human kinases [1]; kinase RET (E762Q)) of 93.8% and a remaining activity at 10 µM (382 unique human kinases [2]) of 86.4%. It also gave a remaining activity at 10 µM (382 unique human kinases [3]) of 102% and a remaining activity at 10 µM (382 unique human kinases [4]) of 119%.
Compound `CC(C)c1cc(-c2n[nH]c(=O)n2-c2ccc3c(ccn3C)c2)c(O)cc1O` [Ganetespib] has a remaining activity at 10 µM (382 unique human kinases [5]) of 9.72%, a remaining activity at 10 µM (382 unique human kinases [6]) of 98.6% and a remaining activity at 10 µM (382 unique human kinases [7]) of 106%. The remaining activity at 10 µM (382 unique human kinases [8]) was 110%, the remaining activity at 1 µM (382 unique human kinases [9]; compound 1 uM, read-out: % Enzyme Activity (relative to DMSO controls)) was 41.9% and the remaining activity at 10 µM (382 unique human kinases [9]; [12]) was 11.2%. For the same compound, the remaining activity at 10 µM (382 unique human kinases [10]) was 2.65% and the remaining activity at 10 µM (382 unique human kinases [11]) was 93.8%.
In the case of `CCNC(=O)c1noc(-c2cc(C(C)C)c(O)cc2O)c1-c1ccc(CN2CCOCC2)cc1` [Luminespib (AUY-922)], the “% Enzyme Activity (relative to DMSO controls)” value (382 unique human kinases [1]; kinase RET (E762Q)) is reported as 89.64%, the remaining activity at 10 µM (382 unique human kinases [1]; kinase RET (E762Q)) is reported as 96.6% and the “% Enzyme Activity (relative to DMSO controls)” value (382 unique human kinases [2]) is reported as 94.57%. The remaining activity at 10 µM (382 unique human kinases [2]) was 94.7%, the “% Enzyme Activity (relative to DMSO controls)” value (382 unique human kinases [3]) was 105.08% and the remaining activity at 10 µM (382 unique human kinases [3]) was 106%. The “% Enzyme Activity (relative to DMSO controls)” value (382 unique human kinases [4]) was 107.77% and the remaining activity at 10 µM (382 unique human kinases [4]) was 108%.
In the case of `CCNC(=O)c1noc(-c2cc(C(C)C)c(O)cc2O)c1-c1ccc(CN2CCOCC2)cc1` [Luminespib], the “% Enzyme Activity (relative to DMSO controls)” value (382 unique human kinases [5]) is reported as 9.69%, the remaining activity at 10 µM (382 unique human kinases [5]) is reported as 9.81% and the “% Enzyme Activity (relative to DMSO controls)” value (382 unique human kinases [6]) is reported as 100.12%. For the same compound, the remaining activity at 10 µM (382 unique human kinases [6]) was 101%, the “% Enzyme Activity (relative to DMSO controls)” value (382 unique human kinases [7]) was 94.46% and the remaining activity at 10 µM (382 unique human kinases [7]) was 100%. For the same compound, the “% Enzyme Activity (relative to DMSO controls)” value (382 unique human kinases [8]) was 99.26%, the remaining activity at 10 µM (382 unique human kinases [8]) was 100% and the “% Enzyme Activity (relative to DMSO controls)” value (382 unique human kinases [9]; compound 10 uM) was 20.58%. For the same compound, the remaining activity at 10 µM (382 unique human kinases [9]; [12]) was 22.4%, the “% Enzyme Activity (relative to DMSO controls)” value (382 unique human kinases [10]) was 85.24% and the remaining activity at 10 µM (382 unique human kinases [10]) was 90.4%. For the same compound, the “% Enzyme Activity (relative to DMSO controls)” value (382 unique human kinases [11]) was 93.01% and the remaining activity at 10 µM (382 unique human kinases [11]) was 95.1%.

— article PMC8550792, “Evolution of kinase polypharmacology across HSP90 drug discovery” (Cell Chemical Biology, 2021)
